7 molecules from paper PMC5819854 (ACS Omega, 2017) can be followed below.

Where two headings read alike, the source gives them in different places.

For one assay, the target named is human D3R (Homo sapiens, UniProt P35462). Description: Radioligand competition binding, human D3R. A general note: Loss of bound radioactivity is the signal in a displacement assay; it reports binding, not function.
Another assay addresses human κOR (Homo sapiens, UniProt P41145). In words: biochemical. The assay is classed as binding.
Another assay deals with human μOR (Homo sapiens, UniProt P35372). Description: biochemical. It is filed as binding.
The target of a further assay is human δOR (Homo sapiens, UniProt P41143). Description: biochemical. The assay is classed as binding.
Chain of human δOR (P41143 whole entry): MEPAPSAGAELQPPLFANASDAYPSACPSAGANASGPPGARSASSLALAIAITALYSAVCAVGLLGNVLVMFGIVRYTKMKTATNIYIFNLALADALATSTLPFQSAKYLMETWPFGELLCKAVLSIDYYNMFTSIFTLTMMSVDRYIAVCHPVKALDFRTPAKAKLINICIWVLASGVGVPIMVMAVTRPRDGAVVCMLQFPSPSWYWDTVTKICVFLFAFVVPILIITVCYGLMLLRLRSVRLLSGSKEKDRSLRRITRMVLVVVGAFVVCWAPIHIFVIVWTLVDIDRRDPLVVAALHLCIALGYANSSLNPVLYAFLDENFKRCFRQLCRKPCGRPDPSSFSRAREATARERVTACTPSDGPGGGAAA

Chain of human κOR (P41145 whole entry): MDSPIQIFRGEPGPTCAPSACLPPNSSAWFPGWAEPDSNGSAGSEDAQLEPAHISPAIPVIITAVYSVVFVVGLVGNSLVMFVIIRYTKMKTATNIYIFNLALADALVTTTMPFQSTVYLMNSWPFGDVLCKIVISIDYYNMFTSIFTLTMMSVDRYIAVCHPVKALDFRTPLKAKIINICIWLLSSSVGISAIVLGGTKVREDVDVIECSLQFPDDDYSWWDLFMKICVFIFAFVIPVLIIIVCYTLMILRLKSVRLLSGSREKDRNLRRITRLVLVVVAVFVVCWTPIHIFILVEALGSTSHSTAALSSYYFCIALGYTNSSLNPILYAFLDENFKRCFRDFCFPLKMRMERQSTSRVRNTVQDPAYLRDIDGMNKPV
Chain of human D3R (P35462 whole entry): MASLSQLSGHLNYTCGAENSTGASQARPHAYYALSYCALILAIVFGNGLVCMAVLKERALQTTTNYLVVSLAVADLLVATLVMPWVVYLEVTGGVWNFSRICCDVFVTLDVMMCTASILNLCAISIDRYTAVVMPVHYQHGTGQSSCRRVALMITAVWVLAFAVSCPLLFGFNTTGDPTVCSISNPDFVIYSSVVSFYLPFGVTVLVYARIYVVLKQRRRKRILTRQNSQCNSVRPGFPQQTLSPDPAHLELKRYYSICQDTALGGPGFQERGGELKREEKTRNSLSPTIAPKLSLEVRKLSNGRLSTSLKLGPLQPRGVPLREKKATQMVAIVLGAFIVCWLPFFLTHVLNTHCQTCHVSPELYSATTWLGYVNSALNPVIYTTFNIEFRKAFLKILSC
Chain of human μOR (P35372 whole entry): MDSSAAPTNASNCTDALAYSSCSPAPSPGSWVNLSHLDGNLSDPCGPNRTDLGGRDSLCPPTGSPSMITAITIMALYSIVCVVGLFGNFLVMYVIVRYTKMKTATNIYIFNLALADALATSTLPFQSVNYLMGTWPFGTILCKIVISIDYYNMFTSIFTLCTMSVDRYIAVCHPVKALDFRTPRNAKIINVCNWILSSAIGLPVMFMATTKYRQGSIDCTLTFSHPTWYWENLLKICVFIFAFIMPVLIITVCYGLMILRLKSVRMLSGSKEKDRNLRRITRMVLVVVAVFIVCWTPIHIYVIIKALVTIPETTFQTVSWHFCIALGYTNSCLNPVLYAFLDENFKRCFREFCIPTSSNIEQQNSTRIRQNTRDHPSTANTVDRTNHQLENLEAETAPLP

On to “2-(4-Fluoro-2-methoxyphenyl)-N-(4-(4-(2-methoxyphenyl)piperazine-1-yl)but-1-yl)azocarboxamide [3d]”, for which the “affinity for the D3 receptor (in words)” value at human D3R is on record as “single-digit”.

Consider “2-(4-Fluorobiphen-2-yl)-N-(4-(4-(3-methoxyphenyl)piperazine-1-yl)but-1-yl)azocarboxamide [3e]”, for which the “affinity for the D3 receptor (in words)” value on human D3R was “sub-nanomolar”. At human D3R (ratio of Ki values), the “D3 selectivity over 5-HT1A, Ki(5-HT1A/D3)” value is 43. In addition, the “increase of D3 affinity compared to reference compound 3a” value on human D3R (vs ortho- and meta-unsubstituted 3a) is recorded as 10 fold.

On to `CN(C)C1(CNC(=O)/N=N/c2ccc(F)cc2)CCCCC1` [4a, (E)-N-((1-(Dimethylamino)cyclohexyl)methyl)-2-(4-fluorophenyl)diazene-1-carboxamide], for which the Ki – broadly, a dissociation constant, usually derived from enzyme kinetics or from competition with a known ligand – on human κOR stood at 3.1 ± 0.78 µM. Moreover, at human μOR, the Ki was 2.5 ± 1.1 µM; the “selectivity between the κ and μ opioid receptor subtypes (in words)” value is recorded as “did not show any selectivity”.

In the case of `Cc1cc(F)ccc1/N=N/C(=O)NCC1(N(C)C)CCCCC1` [4b, (E)-N-((1-(Dimethylamino)cyclohexyl)methyl)-2-(4-fluoro-2-methylphenyl)diazene-1-carboxamide], the Ki at human κOR came to 6.1 ± 1.8 µM; on human μOR, 4.9 ± 0.35 µM.

Molecule `Cc1cc(/N=N/C(=O)NCC2(N(C)C)CCCCC2)ccc1F` [4c, (E)-N-((1-(Dimethylamino)cyclohexyl)methyl)-2-(4-fluoro-3-methylphenyl)diazene-1-carboxamide] showed a Ki on human κOR of 4.8 ± 1.8 µM. Besides, at human μOR, the affinity corresponds to a Ki of 1.1 ± 0.35 µM, the “affinity for the μ-opioid receptor (in words)” value is listed as “micromolar”, the “subtype selectivity Ki(δOR/μOR)” value came out at 27 and the “subtype selectivity Ki(κOR/μOR)” value stood at 4.4.

Consider `COc1cc(F)ccc1/N=N/C(=O)NCC1(N(C)C)CCCCC1` [4d, (E)-N-((1-(Dimethylamino)cyclohexyl)methyl)-2-(4-fluoro-2-methoxyphenyl)diazene-1-carboxamide], for which the Ki amounted to 38 ± 38 µM on human δOR, 7.2 ± 1.8 µM at human κOR and 7.4 ± 5.2 µM on human μOR. Further, on human μOR, the “selectivity between the κ and μ opioid receptor subtypes (in words)” value is “did not show any selectivity”.

Regarding “(E)-N-((1-(Dimethylamino)cyclohexyl)methyl)-2-(4-fluorobiphen-2-yl)diazene-1-carboxamide [4e]”, the Ki on human κOR (read-out: Ki κOR) is 4.8 ± 1.3 µM; on human μOR (read-out: Ki μOR), 2.1 ± 0.57 µM.
